Reference: ChEMBL document CHEMBL1156497, “EF24 induces G2/M arrest and apoptosis in cisplatin-resistant human ovarian cancer cells by increasing PTEN expression” (J Biol Chem, 2007)
Each block holds one compound with its values, some of them ahead of it. The source made the active and inactive calls. The rule behind the calls is not given here. Residues, ends and D or L forms follow the SMILES beside them. *: point of attachment. Cbz = O=C(OCc1ccccc1)*

What was measured:
A2780 [1] = assay: Induction of apoptosis in cisplatin-resistant human A2780 cells assessed as inhibition of PTEN degradation at 2 uM by immunoblot analysis; assay type: functional, cell-based
A2780 [2] = assay: Induction of apoptosis in cisplatin-resistant human A2780 cells overexpressing PTEN assessed as enhancement of cleaved caspase-3 by Western blotting; assay type: functional, cell-based
A2780 [3] = assay: Induction of apoptosis in cisplatin-resistant human A2780 cells assessed as enhancement of p27 level at 2 uM by immunoblot analysis; assay type: functional, cell-based
A2780 [4] = assay: Induction of apoptosis in cisplatin-resistant human A2780 cells assessed as enhancement of p53 phosphorylation at 2 uM by immunoblot analysis; assay type: functional, cell-based
A2780 [5] = assay: Induction of apoptosis in cisplatin-resistant human A2780 cells assessed as decrease in MDM2 level at 2 uM by immunoblot analysis; assay type: functional, cell-based; conditions: TDE = time-dependent effect
A2780 [6] = assay: Induction of apoptosis in cisplatin-resistant human A2780 cells assessed as increase in FasL receptor expression at 2 uM by immunoblot analysis; assay type: functional, cell-based; conditions: TDE = time-dependent effect
A2780 [7] = assay: Induction of apoptosis in cisplatin-resistant human A2780 cells assessed as decrease in CycD1 expression at 2 uM by immunoblot analysis; assay type: functional, cell-based; conditions: TDE = time-dependent effect
CHO = assay: Cell viability of CHO cells after 24 hrs by MTT assay; assay type: functional, cell-based; conditions: Cricetulus griseus
A2780 [8] = assay: Induction of apoptosis in cisplatin-resistant human A2780 cells assessed as accumulation at G2/M phase at 2 uM after 12 hrs by flow cytometry relative to control; assay type: functional
A2780 [9] = assay: Cell viability of human cisplatin-sensitive human A2780 cells after 24 hrs by MTT assay; assay type: functional, cell-based; conditions: A2780, 24 h
A2780 [10] = assay: Induction of apoptosis in cisplatin-resistant human A2780 cells assessed as decrease in CycA expression at 2 uM by immunoblot analysis; assay type: functional, cell-based; conditions: TDE = time-dependent effect
A2780 [11] = assay: Induction of apoptosis in cisplatin-resistant human A2780 cells overexpressing PTEN assessed as enhancement of p53 by Western blotting; assay type: functional, cell-based
A2780 [12] = assay: Reversal of induction of apoptosis in cisplatin-resistant human A2780 cells assessed as decrease of p21 level by immunoblot analysis in presence of PTEN-specific siRNA; assay type: functional, cell-based
A2780 [13] = assay: Induction of apoptosis in cisplatin-resistant human A2780 cells assessed as accumulation at G2/M phase at 2 uM after 3 hrs by flow cytometry relative to control; assay type: functional
A2780 [14] = assay: Induction of apoptosis in cisplatin-resistant human A2780 cells assessed as change in Wee1 level at 2 uM by immunoblot analysis; assay type: functional, cell-based
A2780 [15] = assay: Induction of apoptosis in cisplatin-resistant human A2780 cells assessed as increase in TNFR1 expression at 2 uM after 6 to 24 hrs by immunoblot analysis; assay type: functional, cell-based
A2780 [16] = assay: Induction of apoptosis in cisplatin-resistant human A2780 cells assessed as activation of caspase cascade at 2 uM after 6 to 24 hrs by Western blotting; assay type: functional, cell-based
A2780 [17] = assay: Cell viability of cisplatin-resistant human A2780 cells overexpressing PTEN at 2 uM after 24 hrs by MTT assay; assay type: functional, cell-based
A2780 [18] = assay: Reversal of induction of apoptosis in cisplatin-resistant human A2780 cells assessed as decrease of p53 level by immunoblot analysis in presence of PTEN-specific siRNA; assay type: functional, cell-based
A2780 [19] = assay: Induction of apoptosis in cisplatin-resistant human A2780 cells assessed as enhancement of p53 level at 2 uM by immunoblot analysis; assay type: functional, cell-based
A2780 [20] = assay: Induction of apoptosis in cisplatin-resistant human A2780 cells assessed as inhibition of pPTEN degradation at 2 uM by immunoblot analysis; assay type: functional, cell-based
A2780 [21] = assay: Induction of apoptosis in cisplatin-resistant human A2780 cells overexpressing PTEN assessed as inhibition of pAkt by Western blotting; assay type: functional, cell-based
A2780 [22] = assay: Induction of apoptosis in cisplatin-resistant human A2780 cells assessed as increase in Fas/CD95 receptor expression at 2 uM after 6 to 24 hrs by immunoblot analysis; assay type: functional, cell-based
A2780 [23] = assay: Reversal of induction of apoptosis in cisplatin-resistant human A2780 cells assessed as inhibition of cleaved caspase-3 by immunoblot analysis in presence of PTEN-specific siRNA; assay type: functional, cell-based
A2780 [24] = assay: Induction of apoptosis in cisplatin-resistant human A2780 cells assessed as decrease in CycB1 expression at 2 uM by immunoblot analysis; assay type: functional, cell-based; conditions: TDE = time-dependent effect
A2780 [25] = assay: Induction of apoptosis in cisplatin-resistant human A2780 cells assessed as decrease in pERK1/2 level at 2 uM after 48 hrs by immunoblot analysis; assay type: functional, cell-based
A2780 [26] = assay: Reversal of induction of apoptosis in cisplatin-resistant human A2780 cells assessed as suppression of PTEN by immunoblot analysis in presence of PTEN-specific siRNA; assay type: functional, cell-based
A2780 [27] = assay: Induction of apoptosis in cisplatin-resistant human A2780 cells assessed as enhancement of p21 level at 2 uM by immunoblot analysis; assay type: functional, cell-based
A2780 [28] = assay: Induction of apoptosis in cisplatin-resistant human A2780 cells assessed as decrease in Cdc25C expression at 2 uM by immunoblot analysis; assay type: functional, cell-based; conditions: TDE = time-dependent effect
A2780 [29] = assay: Induction of apoptosis in cisplatin-resistant human A2780 cells assessed as decrease in phosphorylated Akt level at 2 uM after 12 hrs by immunoblot analysis; assay type: functional, cell-based
A2780 [30] = assay: Induction of apoptosis in cisplatin-resistant human A2780 cells overexpressing PTEN assessed as enhancement of p21 by Western blotting; assay type: functional, cell-based
A2780 [31] = assay: Induction of apoptosis in cisplatin-resistant human A2780 cells assessed as decrease in Cdc2 expression at 2 uM by immunoblot analysis; assay type: functional, cell-based; conditions: TDE = time-dependent effect
A2780 [32] = assay: Cell viability of cisplatin-resistant human A2780 cells after 24 hrs by MTT assay; assay type: functional, cell-based; conditions: A2780, 24 h
A2780 [33] = assay: Induction of apoptosis in cisplatin-resistant human A2780 cells assessed as accumulation at sub-G1 phase at 2 uM after 24 hrs by flow cytometry relative to control; assay type: functional
A2780 [34] = assay: Reversal of induction of apoptosis in cisplatin-resistant human A2780 cells assessed as inhibition of cleaved caspase-7 by immunoblot analysis in presence of PTEN-specific siRNA; assay type: functional, cell-based
A2780 [35] = assay: Induction of apoptosis in cisplatin-resistant human A2780 cells overexpressing PTEN assessed as enhancement of cleaved PARP by Western blotting; assay type: functional, cell-based
A2780 [36] = assay: Reversal of induction of apoptosis in cisplatin-resistant human A2780 cells assessed as accumulation at sub-G1 phase at 2 uM after 24 hrs by flow cytometry in presence of z-VAD-fmk; assay type: functional, cell-based
A2780 [37] = assay: Induction of apoptosis in cisplatin-resistant human A2780 cells assessed as accumulation at G2/M phase at 2 uM after 6 hrs by flow cytometry relative to control; assay type: functional
A2780 [38] = assay: Reversal of induction of apoptosis in cisplatin-resistant human A2780 cells assessed as increase of Akt phosphorylation by immunoblot analysis in presence of PTEN-specific siRNA; assay type: functional, cell-based
A2780 [39] = assay: Induction of apoptosis in cisplatin-resistant human A2780 cells assessed as decrease in pERK1/2 level at 2 uM after 24 hrs by immunoblot analysis; assay type: functional, cell-based
A2780 [40] = assay: Reversal of induction of apoptosis in cisplatin-resistant human A2780 cells assessed as inhibition of cleaved PARP by immunoblot analysis in presence of PTEN-specific siRNA; assay type: functional, cell-based

SMILES: CC(C)C[C@@H](C=O)NC(=O)[C@H](CC(C)C)NC(=O)[C@H](CC(C)C)NC(=O)OCc1ccccc1 (Cbz-Leu-Leu-Leu-aldehyde)
Activity (A2780 [1]): Active

IC50 (A2780 [9]): 500 nM | IC50 (A2780 [32]): 650 nM
SMILES: O=C1/C(=C/c2ccccc2F)CNC/C1=C\c1ccccc1F
Activity (A2780 [2]): Active | Activity (A2780 [3]): inactive | Activity (A2780 [4]): Active | Activity (A2780 [5]): tde | Activity (A2780 [6]): tde | Activity (A2780 [7]): tde | IC50 (CHO): 4600 nM | Activity (A2780 [8]): 57.5% | Activity (A2780 [10]): tde | Activity (A2780 [11]): Active | Activity (A2780 [12]): Active | Activity (A2780 [1]): Active | Activity (A2780 [13]): 27.3% | Activity (A2780 [14]): inactive | Activity (A2780 [15]): inactive | Activity (A2780 [16]): Active | Activity (A2780 [17]): Active | Activity (A2780 [18]): Active | Activity (A2780 [19]): Active | Activity (A2780 [20]): Active | Activity (A2780 [21]): Active | Activity (A2780 [22]): inactive | Activity (A2780 [23]): Active | Activity (A2780 [24]): tde | Activity (A2780 [25]): Active | Activity (A2780 [26]): Active | Activity (A2780 [27]): Active | Activity (A2780 [28]): tde | Activity (A2780 [29]): Active | Activity (A2780 [30]): Active | Activity (A2780 [31]): tde | Activity (A2780 [33]): 35.3% | Activity (A2780 [34]): Active | Activity (A2780 [35]): Active | Activity (A2780 [36]): Active | Activity (A2780 [37]): 36.8% | Activity (A2780 [38]): Active | Activity (A2780 [39]): Active | Activity (A2780 [40]): Active

SMILES: O=c1cc(N2CCOCC2)oc2c(-c3ccccc3)cccc12
Activity (A2780 [29]): Active
